Assay results published in patent US10676485B2, “Macrocyclic MCL-1 inhibitors and methods of use” (AbbVie Inc., priority 2017, dated 2020).
pKi: −log10 of the molar value. Like-named read-outs stand apart in the source and are kept apart here.

How the values were obtained:
[1] = tested on: AMO-1 human multiple myeloma tumor cell line; experiment: AMO-1 cell viability assay (CellTiter-Glo); type: cell-based; details: AMO1, read-out: AMO-1 Viability IC50 (μM), 10% FBS, 24 hours of compound treatment
Experimental: (§1) In one exemplary set of conditions, NCI-H929 or AMO-1 (ATCC. Manassas, Va.) were plated 4.000 cells per well in 384-well tissue culture plates (Corning. Corning, N.Y.) in a total volume of 25 μL RPMI tissue culture medium supplemented with 10% fetal bovine serum (Sigma-Aldrich, St. Louis, Mo.) and treated with a 3-fold serial dilution of the compounds of interest with a Labcyte Echo from a final concentration of 10 μM to 0.0005 μM. Each concentration was tested in duplicate at least 3 independent times. A luminescent signal proportional to the number of viable cells following 24 hours of compound treatment was determined using the CellTiter-Glo® Luminescent Cell Viability Assay according to the manufacturer's recommendations (Promega Corp., Madison, Wis.). The plates were read in a Perkin Elmer Envision using a Luminescence protocol. To generate dose response curves the data is normalized to percent viability by setting the averages of the staurosporine (10 uM) and DMSO only control wells to 0% and (00)% viability respectively. The IC50 values for the compounds are generated by fitting the normalized data with Accelrys Assay Explorer 3.3 to a sigmoidal curve model using linear regression.

[2] = molecular target: GST-MCL-1 (Homo sapiens (Human), UniProt Q07820); experiment: TR-FRET MCL-1 binding assay (competition with probe F-Bak); details: for Ki: read-out: MCL-1 Binding Ki (nM, 10% HS), in the presence of 10% HS; for pKi: without HS, read-out: MCL-1 Binding Ki
Experimental: For the assay, an acoustic dispenser was used to prepare dilution series from 10 mM test compounds in 100% DMSO and directly transfer 160 nL into low volume 384-well assay plates. 8 μL of a protein/probe/antibody mix was then added to each well resulting in final concentrations listed below: Test compound: 11 three-fold dilutions beginning at 25 μM
The samples were then mixed on a shaker for 1 minute and incubated for an additional 2 hours at room temperature. For each assay plate, a probe/antibody and protein/antibody/probe mixture were included as a negative and a positive control, respectively. Fluorescence was measured on the Envision (Perkin Elmer) using a 340/35 nm excitation filter and 520/525 (F-Bak) and 495/510 nm (Tb-labeled anti-his antibody) emission filters. […] The TR-FRET assay can be performed in the presence of varying concentrations of human serum (HS) or fetal bovine serum (FBS). Compounds were tested both without HS and in the presence of 10% HS.

[3] = tested on: NCI-H929 human multiple myeloma tumor cell line; experiment: NCI-H929 cell viability assay (CellTiter-Glo); type: cell-based; details: NCI-H929, read-out: H929 Viability IC50 (μM), 10% FBS, 24 hours of compound treatment
Experimental: as §1

Sequence of GST-MCL-1 (Q07820 whole entry): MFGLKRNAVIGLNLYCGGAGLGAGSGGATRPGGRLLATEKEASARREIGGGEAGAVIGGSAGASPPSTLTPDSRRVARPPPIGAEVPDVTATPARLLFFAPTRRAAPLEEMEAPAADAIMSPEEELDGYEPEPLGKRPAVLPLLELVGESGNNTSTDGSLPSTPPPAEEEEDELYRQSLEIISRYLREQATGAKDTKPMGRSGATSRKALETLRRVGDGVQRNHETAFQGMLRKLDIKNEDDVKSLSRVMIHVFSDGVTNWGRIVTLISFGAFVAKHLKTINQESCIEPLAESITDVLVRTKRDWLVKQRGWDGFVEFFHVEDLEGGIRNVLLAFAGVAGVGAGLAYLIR

Row | SMILES | IC50 [1] [µM] | Ki [2] [nM] | pKi [2] | IC50 [3] [µM]
1 | Cc1c(Cl)c2c(Cl)c(C)c1-c1c(C3=CCCC3)sc3ncnc(c13)O[C@@H](C(=O)O)Cc1cc(ccc1OCc1ccnc(C3=CC[C@](F)(COC[C@H]4COCCO4)CC3)n1)OC[C@@H](CN1CCN(C)CC1)O2 [Example 34, (7R,16R)-19,23-dichloro-1-(cyclopent-1-en-1-yl)-10-({2-[(4S)-4-({[(2R)-1,4-dioxan-2-yl]methoxy}methyl)-4-fluorocyclohex-1-en-1-yl]pyrimidin-4-yl}methoxy)-20,22-dimethyl-16-[(4-methylpiperazin-1-yl)methyl]-7,8,15,16-tetrahydro-18,21-etheno-13,9-(metheno)-6,14,17-trioxa-2-thia-3,5-diazacyclononadeca[1,2,3-cd]indene-7-carboxylic acid] | 0.000235 | 0.54 | 10.52 | 0.001
2 | Cc1c(Cl)c2c(Cl)c(C)c1-c1c(C3=CCCC3)sc3ncnc(c13)O[C@@H](C(=O)O)Cc1cc(ccc1OCc1ccnc(C3=CC[C@@](F)(COC[C@@H]4COCCO4)CC3)n1)OC[C@@H](CN1CCN(C)CC1)O2 [Example 38, (7R,16R)-19,23-dichloro-1-(cyclopent-1-en-1-yl)-10-({2-[(4R)-4-({[(2S)-1,4-dioxan-2-yl]methoxy}methyl)-4-fluorocyclohex-1-en-1-yl]pyrimidin-4-yl}methoxy)-20,22-dimethyl-16-[(4-methylpiperazin-1-yl)methyl]-7,8,15,16-tetrahydro-18,21-etheno-13,9-(metheno)-6,14,17-trioxa-2-thia-3,5-diazacyclononadeca[1,2,3-cd]indene-7-carboxylic acid] | 0.000267 | 0.63 | 10.44 | 0.000748
3 | Cc1c(Cl)c2c(Cl)c(C)c1-c1c(-c3ccc(F)cc3)sc3ncnc(c13)O[C@@H](C(=O)O)Cc1cc(ccc1OCc1ccnc(C3=CC[C@@](F)(COC[C@@H]4COCCO4)CC3)n1)OC[C@@H](CN1CCN(C)CC1)O2 [Example 42, (7R,16R)-19,23-dichloro-10-({2-[(4R)-4-({[(2S)-1,4-dioxan-2-yl]methoxy}methyl)-4-fluorocyclohex-1-en-1-yl]pyrimidin-4-yl}methoxy)-1-(4-fluorophenyl)-20,22-dimethyl-16-[(4-methylpiperazin-1-yl)methyl]-7,8,15,16-tetrahydro-18,21-etheno-13,9-(metheno)-6,14,17-trioxa-2-thia-3,5-diazacyclononadeca[1,2,3-cd]indene-7-carboxylic acid] | 0.000404 | 0.24 | 10.74 | 0.000356
4 | Cc1c(Cl)c2c(Cl)c(C)c1-c1c(C3=CCCC3)sc3ncnc(c13)O[C@@H](C(=O)O)Cc1cc(ccc1OCc1ccnc([C@H]3CC[C@](F)(COC[C@@H]4COCCO4)CC3)n1)OC[C@@H](CN1CCN(C)CC1)O2 [Example 33, (7R,16R)-19,23-dichloro-1-(cyclopent-1-en-1-yl)-10-({2-[(1R,4s)-4-({[(2S)-1,4-dioxan-2-yl]methoxy}methyl)-4-fluorocyclohexyl]pyrimidin-4-yl}methoxy)-20,22-dimethyl-16-[(4-methylpiperazin-1-yl)methyl]-7,8,15,16-tetrahydro-18,21-etheno-13,9-(metheno)-6,14,17-trioxa-2-thia-3,5-diazacyclononadeca[1,2,3-cd]indene-7-carboxylic acid] | 0.000222 | 0.3 | 10.64 | 0.000586
5 | Cc1c(Cl)c2c(Cl)c(C)c1-c1c(-c3ccc(F)cc3)sc3ncnc(c13)O[C@@H](C(=O)O)Cc1cc(ccc1OCc1ccnc(N3CC(COC[C@@H]4COCCO4)C3)n1)OC[C@@H](CN1CCN(C)CC1)O2 [Example 13, (7R,16R)-19,23-dichloro-10-({2-[3-({[(2R)-1,4-dioxan-2-yl]methoxy}methyl)azetidin-1-yl]pyrimidin-4-yl}methoxy)-1-(4-fluorophenyl)-20,22-dimethyl-16-[(4-methylpiperazin-1-yl)methyl]-7,8,15,16-tetrahydro-18,21-etheno-9,13-(metheno)-6,14,17-trioxa-2-thia-3,5-diazacyclononadeca[1,2,3-cd]indene-7-carboxylic acid] | 0.00126 | 1.07 | 10.10 | 0.00311
